Laboratory results as given in patent publication US9833487B2, “Composition for preventing and treating arthritic diseases” (priority 2008, dated 2017).

Assays:
[1] = system: GAG degradation in human articular cartilage tissue; test: Dissociation of glycosaminoglycan (DMB assay), IL-1α induced cartilage tissue; format: cell-based; conditions: 0.1, 0.2, 0.4 mg/ml, FIG. 12
Protocol: The joint cartilage of human was provided from the patient who had taken artificial joint surgery (Orthopedics Surgery Dep. of Kyunghee Medical Center). […] The tissue was washed with the medium several times and then the articular tissue was cultured at 37° C. in humidified […] incubator. 1 or 2 days after the incubation, the medium was replaced with new basic medium containing inactivated 5% fetal bovine serum with heat treatment, 10 mM HEPES, and 100 unit/ml of penicillin-streptomycin, and 30 mg of the chondrocyte was transferred to 48-well plate. After culturing for 1 hour, 5 ng/μl of interleukin-1α (IL-1α, R&D system, USA) was added to the medium to induce inflammation and various concentrations of test sample (KM-1), ETCP (SK Chemicals), Celecoxib (CEL, Pfizer Co., USA), and Glucosamine (GLUCO, Sigma Co., USA), i.e., 0.1, 0.2, and 0.4 mg/ml, were added thereto respectively. […] The concentration of GAG in the culture medium of cartilage tissue incubated with the procedure disclosed in Reference Example 3 was measured by determining the amount of polyanionic substance produced by being reacted with blyscan dye solution and chondroitin sulfate was used as a standard. […] The amount of spectroscopic GAG was determined at 540 nm and the inhibition rate was expressed based on the amount of degradated GAG induced by interleukin-1α (IL-1α).

[2] = system: proteoglycan mRNA in cartilage tissue; test: Gene expression of proteoglycan (RT-PCR); format: cell-based, human; conditions: IL-1α treated cartilage tissue; FIG. 13
Protocol: (§1) The joint cartilage of human was provided from the patient who had taken artificial joint surgery (Orthopedics Surgery Dep. of Kyunghee Medical Center). […] The tissue was washed with the medium several times and then the articular tissue was cultured at 37° C. in humidified […] incubator. 1 or 2 days after the incubation, the medium was replaced with new basic medium containing inactivated 5% fetal bovine serum with heat treatment, 10 mM HEPES, and 100 unit/ml of penicillin-streptomycin, and 30 mg of the chondrocyte was transferred to 48-well plate. After culturing for 1 hour, 5 ng/μl of interleukin-1α (IL-1α, R&D system, USA) was added to the medium to induce inflammation and various concentrations of test sample (KM-1), ETCP (SK Chemicals), Celecoxib (CEL, Pfizer Co., USA), and Glucosamine (GLUCO, Sigma Co., USA), i.e., 0.1, 0.2, and 0.4 mg/ml, were added thereto respectively. […] The stained product was washed for 10 minutes with distilled water and the result was determined at UV wavelength (260 nm). The expression of proteoglycan and Col II gene collected from the cartilage tissue and chondrocytic cell of rabbit in above Reference Example 3 was determined and the test was performed by using reverse transcription polymerase chain reaction (RT-PCR) with the method disclosed in Reference Example 4.

[3] = system: type II collagen mRNA in cartilage tissue; test: Gene expression of Col II (RT-PCR); format: cell-based, human; conditions: IL-1α treated cartilage tissue; FIG. 13
Protocol: as §1

[4] = system: MMP-1 (collagenase-1); test: MMP-1 activity in human cartilage tissue medium; format: cell-based; conditions: FIG. 15
Protocol: (§2) The joint cartilage of human was provided from the patient who had taken artificial joint surgery (Orthopedics Surgery Dep. of Kyunghee Medical Center). […] The tissue was washed with the medium several times and then the articular tissue was cultured at 37° C. in humidified […] incubator. 1 or 2 days after the incubation, the medium was replaced with new basic medium containing inactivated 5% fetal bovine serum with heat treatment, 10 mM HEPES, and 100 unit/ml of penicillin-streptomycin, and 30 mg of the chondrocyte was transferred to 48-well plate. After culturing for 1 hour, 5 ng/μl of interleukin-1α (IL-1α, R&D system, USA) was added to the medium to induce inflammation and various concentrations of test sample (KM-1), ETCP (SK Chemicals), Celecoxib (CEL, Pfizer Co., USA), and Glucosamine (GLUCO, Sigma Co., USA), i.e., 0.1, 0.2, and 0.4 mg/ml, were added thereto respectively. […] In order to measure proteolytic activity, each 25 μl of medium was added to 96-well plate with 50 μl of the substrate to incubate at 37° C. for 1 hr and the optical density was measured by ELISA reader (Molecular devices, USA) at 450 nm. The activity of each sample on MMP-1 and MMP-13 was determined by calculating the MMP (%) of medium in each well.

[5] = system: MMP-13 (collagenase-13); test: MMP-13 activity in human cartilage tissue medium; format: cell-based; conditions: FIG. 14
Protocol: as §2

[6] = system: pERK; test: MAPK phosphorylation (western blot), pERK; format: cell-based, human; conditions: FIG. 18
[7] = system: pJNK; test: MAPK phosphorylation (western blot), pJNK; format: cell-based, human; conditions: FIG. 18
[8] = system: pp 38; test: MAPK phosphorylation (western blot), pp38; format: cell-based, human; conditions: FIG. 18

O=C(/C=C/c1ccc(O)c(O)c1)O[C@@H]1C[C@](O)(C(=O)O)C[C@@H](O)[C@H]1O [chlorogenic acid]
inhibition of the degradation of GAG [1]: potently inhibited the degradation of GAG | mRNA gene expression of proteoglycan [2]: increased mRNA gene expression of proteoglycan and type II collagen | mRNA gene expression of type II collagen [3]: increased mRNA gene expression of proteoglycan and type II collagen | inhibition of MMP-1 activity [4]: significantly inhibited the activity of collagenase MMP-1 and MMP-13 in a dose dependent manner | inhibition of MMP-13 activity [5]: significantly inhibited the activity of collagenase MMP-1 and MMP-13 in a dose dependent manner | inhibition of pERK [6]: inhibited the activity of pERK | inhibition of pJNK [7]: potently inhibited | inhibition of pp 38 [8]: potently inhibited
